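Compound exposure: 48 hours, 5 concentrations, 96-well plates. Abbreviation: GI50, concentration required for 50% inhibition of growth. The concentration for full growth arrest is given as TGI.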
Experiments:
Experiment in all cases: NCI-60 cell line screen, 48 h
[1] = tested on: 786-0 renal
[2] = tested on: A498 renal
[3] = tested on: A549 NSCLC
[4] = tested on: ACHN renal
[5] = tested on: BT-549 breast
[6] = tested on: CAKI-1 renal
[7] = tested on: CCRF-CEM leukemia
[8] = tested on: COLO 205 colon
[9] = tested on: DU-145 prostate
[10] = tested on: EKVX NSCLC
[11] = tested on: HCC-2998 colon
[12] = tested on: HCT-116 colon
[13] = tested on: HCT-15 colon
[14] = tested on: HOP-62 NSCLC
[15] = tested on: HOP-92 NSCLC
[16] = tested on: HS 578T breast
[17] = tested on: HT29 colon
[18] = tested on: IGROV1 ovarian
[19] = tested on: K-562 leukemia
[20] = tested on: KM12 colon
[21] = tested on: LOX IMVI melanoma
[22] = tested on: M14 melanoma
[23] = tested on: MALME-3M melanoma
[24] = tested on: MCF7 breast
[25] = tested on: MDA-MB-231 breast
[26] = tested on: MDA-MB-435
[27] = tested on: MOLT-4 leukemia
[28] = tested on: NCI-H226 lung
[29] = tested on: NCI-H23 lung
[30] = tested on: NCI-H460 lung
[31] = tested on: NCI-H522 lung
[32] = tested on: NCI/ADR-RES ovarian
[33] = tested on: OVCAR-3 ovarian
[34] = tested on: OVCAR-4 ovarian
[35] = tested on: OVCAR-5 ovarian
[36] = tested on: OVCAR-8 ovarian
[37] = tested on: PC-3 prostate
[38] = tested on: RPMI-8226 leukemia
[39] = tested on: RXF 393 renal
[40] = tested on: SF-268 CNS
[41] = tested on: SF-295 CNS
[42] = tested on: SF-539 CNS
[43] = tested on: SK-MEL-28 melanoma
[44] = tested on: SK-MEL-5 melanoma
[45] = tested on: SN12C renal
[46] = tested on: SNB-19 CNS
[47] = tested on: SNB-75 CNS
[48] = tested on: SW-620 colon
[49] = tested on: T-47D breast
[50] = tested on: TK-10 renal
[51] = tested on: U251 CNS
[52] = tested on: UACC-257 melanoma
[53] = tested on: UACC-62 melanoma
[54] = tested on: UO-31 renal
[55] = tested on: SK-OV-3 ovarian
[56] = tested on: SR leukemia

C=C(C)[C@@H]1CCC2=C[C@@H](OC2=O)[C@@H](C(=C)C)C(=O)/C=C(/C)C(=O)C1
GI50 [1]: 35.5 µM | TGI [1]: > 100 µM | GI50 [2]: 26.7 µM | TGI [2]: 69.6 µM | GI50 [3]: 36.9 µM | TGI [3]: > 100 µM | GI50 [4]: 37.3 µM | TGI [4]: > 100 µM | GI50 [5]: 44.8 µM | TGI [5]: > 100 µM | GI50 [6]: 25.4 µM | TGI [6]: 60.9 µM | GI50 [7]: 4.78 µM | TGI [7]: 28.8 µM | GI50 [8]: 26.3 µM | TGI [8]: 56.8 µM | GI50 [9]: 34.9 µM | TGI [9]: > 100 µM | GI50 [10]: 52.4 µM | TGI [10]: > 100 µM | GI50 [11]: 26.2 µM | TGI [11]: 62.2 µM | GI50 [12]: 16.1 µM | TGI [12]: 42 µM | GI50 [13]: 24.1 µM | TGI [13]: 69.7 µM | GI50 [14]: 36.2 µM | TGI [14]: > 100 µM | GI50 [15]: 17.4 µM | TGI [15]: 58.2 µM | GI50 [16]: 35.1 µM | TGI [16]: > 100 µM | GI50 [17]: 41.8 µM | TGI [17]: > 100 µM | GI50 [18]: 40.9 µM | TGI [18]: > 100 µM | GI50 [19]: 18.7 µM | TGI [19]: > 100 µM | GI50 [20]: 24.8 µM | TGI [20]: 63.7 µM | GI50 [21]: > 100 µM | TGI [21]: > 100 µM | GI50 [22]: 20.8 µM | TGI [22]: 50.5 µM | GI50 [23]: 23.8 µM | TGI [23]: 71.5 µM | GI50 [24]: 35.3 µM | TGI [24]: > 100 µM | GI50 [25]: 45.2 µM | TGI [25]: > 100 µM | GI50 [26]: 38.8 µM | TGI [26]: > 100 µM | GI50 [27]: 14 µM | TGI [27]: 47 µM | GI50 [28]: 36.9 µM | TGI [28]: > 100 µM | GI50 [29]: 22.6 µM | TGI [29]: 60.4 µM | GI50 [30]: 29.1 µM | TGI [30]: 92.2 µM | GI50 [31]: 34.4 µM | TGI [31]: > 100 µM | GI50 [32]: 37 µM | TGI [32]: > 100 µM | GI50 [33]: 22.6 µM | TGI [33]: 57.8 µM | GI50 [34]: 71.6 µM | TGI [34]: > 100 µM | GI50 [35]: 70.6 µM | TGI [35]: > 100 µM | GI50 [36]: 49 µM | TGI [36]: > 100 µM | GI50 [37]: 8.79 µM | TGI [37]: 39.3 µM | GI50 [38]: 1760 nM | TGI [38]: 17.1 µM | GI50 [39]: 22.4 µM | TGI [39]: 53.3 µM | GI50 [40]: 30 µM | TGI [40]: > 100 µM | GI50 [41]: 35.9 µM | TGI [41]: > 100 µM | GI50 [42]: 36.5 µM | TGI [42]: 95.4 µM | GI50 [43]: 34.8 µM | TGI [43]: 87.5 µM | GI50 [44]: 18.6 µM | TGI [44]: 39.4 µM | GI50 [45]: 28.6 µM | TGI [45]: 77.3 µM | GI50 [46]: 33.8 µM | TGI [46]: > 100 µM | GI50 [47]: > 100 µM | TGI [47]: > 100 µM | GI50 [48]: 24.7 µM | TGI [48]: 68.4 µM | GI50 [49]: 51.1 µM | TGI [49]: > 100 µM | GI50 [50]: 31.3 µM | TGI [50]: 90.9 µM | GI50 [51]: 33.4 µM | TGI [51]: > 100 µM | GI50 [52]: 58.3 µM | TGI [52]: > 100 µM | GI50 [53]: 24.8 µM | TGI [53]: 61.1 µM | GI50 [54]: 42.2 µM | TGI [54]: > 100 µM

CC1(C)C[C@H]2C=C(C=O)[C@]34C[C@]3(C(=O)OC4O)[C@H]2C1 (stereo partly drawn)
TGI [3]: 13.1 µM | TGI [4]: 8.07 µM | TGI [5]: 4.56 µM | TGI [6]: 5.04 µM | TGI [7]: > 100 µM | TGI [8]: 1.44 µM | TGI [9]: 16.5 µM | TGI [10]: 4.34 µM | TGI [11]: 12.3 µM | TGI [13]: 4.7 µM | TGI [14]: 45.1 µM | TGI [16]: > 100 µM | TGI [17]: 4.96 µM | TGI [18]: 9.75 µM | TGI [19]: > 100 µM | TGI [20]: 5.6 µM | TGI [24]: 5.54 µM | TGI [25]: 6.47 µM | TGI [27]: > 100 µM | TGI [28]: 26.9 µM | TGI [30]: 53.4 µM | TGI [33]: 8.47 µM | TGI [34]: 7.86 µM | TGI [35]: 5.14 µM | TGI [36]: 3.67 µM | TGI [37]: 8.74 µM | TGI [38]: > 100 µM | TGI [41]: 23.9 µM | TGI [43]: 9.4 µM | TGI [44]: 9.32 µM | TGI [55]: 50.3 µM | TGI [45]: > 100 µM | TGI [46]: > 100 µM | TGI [47]: 6.87 µM | TGI [56]: > 100 µM | TGI [48]: > 100 µM | TGI [49]: 4.63 µM | TGI [50]: 4.53 µM | TGI [51]: 51.7 µM | TGI [54]: 6.92 µM

Source: PubChem BioAssay (NCI)
